In US8741875B2, “Compounds as receptor modulators with therapeutic utility” (Allergan, Inc., priority 2009, dated 2014):

Target: T1, human S1P1 receptor (Homo sapiens, UniProt P21453)
T1 construct: expressed in transfected cells; membranes used
Assay: GTP γ35S binding assay for S1P1 activity
Format: biochemical
Details: membranes, 30 min at 25° C., read-out: S1P1 EC50 (Activity potency: S1P1 receptor from GTP γ35S)
Experimental: Compounds were tested for S1P1 activity using the GTP γ^35S binding assay. These compounds may be assessed for their ability to activate or block activation of the human S1P1 receptor in cells stably expressing the S1P1 receptor.
GTP γ^35S binding was measured in the medium containing (mM) HEPES 25, pH 7.4, MgCl2 10, NaCl 100, dithitothreitol 0.5, digitonin 0.003%, 0.2 nM GTP γ^35S, and 5 μg membrane protein in a volume of 150 μl. Test compounds were included in the concentration range from 0.08 to 5,000 nM unless indicated otherwise. Membranes were incubated with 100 μM 5′-adenylylimmidodiphosphate for 30 min, and subsequently with 10 μM GDP for 10 min on ice. Drug solutions and membrane were mixed, and then reactions were initiated by adding GTP γ^35S and continued for 30 min at 25° C. Reaction mixtures were filtered over Whatman GF/B filters under vacuum, and washed three times with 3 mL of ice-cold buffer (HEPES 25, pH7.4, MgCl2 10 and NaCl 100). Filters were dried and mixed with scintillant, and counted for ^35S activity using a β-counter. Agonist-induced GTP γ^35S binding was obtained by subtracting that in the absence of agonist. Binding data were analyzed using a non-linear regression method. In case of antagonist assay, the reaction mixture contained 10 nM S1P in the presence of test antagonist at concentrations ranging from 0.08 to 5000 nM.

T1 sequence (P21453 whole entry): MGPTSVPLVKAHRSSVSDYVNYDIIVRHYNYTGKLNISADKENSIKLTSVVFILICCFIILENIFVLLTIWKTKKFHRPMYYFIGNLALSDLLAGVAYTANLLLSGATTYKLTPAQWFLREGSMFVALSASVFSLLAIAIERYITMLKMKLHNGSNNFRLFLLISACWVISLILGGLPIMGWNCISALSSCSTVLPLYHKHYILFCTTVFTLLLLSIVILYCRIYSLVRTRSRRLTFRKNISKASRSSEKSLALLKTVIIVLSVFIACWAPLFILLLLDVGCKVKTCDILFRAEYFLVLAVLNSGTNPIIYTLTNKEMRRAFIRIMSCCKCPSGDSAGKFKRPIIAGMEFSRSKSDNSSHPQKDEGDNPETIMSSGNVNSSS

SMILES | EC50 [nM]
O=P(O)(O)CCCNCc1cc(-c2ccco2)c(OCCCCCc2ccccc2)cc1F [Compound 51, [3-({2-fluoro-5-(2-furyl)-4-[(5-phenylpentyl)oxy]benzyl}amino)propyl]phosphonic acid] | 1
O=P(O)(O)CCCNCc1ccc(OCCCCc2ccc(F)cc2)c(-c2ccco2)c1 [Compound 26, [3-({4-[4-(4-fluorophenyl)butoxy]-3-(2-furyl)benzyl}amino)propyl]phosphonic acid] | 98.9
O=P(O)(O)OCCNCc1ccc(OCCCCCc2ccccc2)c(-c2cccs2)c1 [Compound 9, 2-({4-[(5-phenylpentyl)oxy]-3-(2-thienyl)benzyl}amino)ethyl dihydrogen phosphate] | 1.5
COc1cccc(CCCCCOc2ccc(CNCCCP(=O)(O)O)cc2-c2cccs2)c1 [Compound 19, (3-{[4-{[5-(3-methoxyphenyl)pentyl]oxy}-3-(2-thienyl)benzyl]amino}propyl)phosphonic acid] | 1120
O=P(O)(O)CCCNCc1ccc(OCCCCCc2cccc(C(F)(F)F)c2)c(-c2ccco2)c1 [Compound 22, (3-{[3-(2-furyl)-4-({5-[3-(trifluoromethyl)phenyl]pentyl}oxy)benzyl]amino}propyl)phosphonic acid] | 65.7
O=P(O)(O)CCCNCc1ccc(NCCCCCc2ccccc2)c(-c2nccs2)c1 [Compound 48, [3-({4-[(5-phenylpentyl)amino]-3-(1,3-thiazol-2-yl)benzyl}amino)propyl]phosphonic acid] | 17.4
O=P(O)(O)CCCNCc1ccc(OCCCCCc2ccccc2)c(-c2ccoc2)c1 [Compound 4, [3-({3-(3-furyl)-4-[(5-phenylpentyl)oxy]benzyl}amino)propyl]phosphonic acid] | 0.6
O=P(O)(O)CCCNCc1ccc(OCCCCCc2ccccc2)c(-c2ccoc2)n1 [Compound 14, {3-[({6-(3-furyl)-5-[(5-phenylpentyl)oxy]pyridin-2-yl}methyl)amino]propyl}phosphonic acid] | 1
O=P(O)(O)CCCNCc1ccc(OCCCCc2ccc(F)cc2)c(-c2cccs2)c1 [Compound 25, [3-({4-[4-(4-fluorophenyl)butoxy]-3-(2-thienyl)benzyl}amino)propyl]phosphonic acid] | 67.5
OCC(CO)NCc1ccc(OCCCCCc2ccccc2)c(-c2cccs2)c1 [Compound 13, 2-({4-[(5-phenylpentyl)oxy]-3-(2-thienyl)benzyl}amino)propane-1,3-diol] | 714
O=P(O)(O)CCCNCc1ccc(OCCCCCc2ccccc2)c(-c2ccc(F)s2)c1 [Compound 18] | 2
O=P(O)(O)CCCNCc1ccc(OCCCCCc2ccccc2F)c(-c2ccco2)c1 [Compound 49, (3-{[4-{[5-(2-fluorophenyl)pentyl]oxy}-3-(2-furyl)benzyl]amino}propyl)phosphonic acid] | 1
O=P(O)(O)CCCNCc1ccc(OCCCCCc2ccc(Cl)cc2)c(-c2cccs2)c1 [Compound 30, (3-{[4-{[5-(4-chlorophenyl)pentyl]oxy}-3-(2-thienyl)benzyl]amino}propyl)phosphonic acid] | 8
CCCCCCCCCCOc1ccc(CNCCCP(=O)(O)O)cc1-c1cccs1 [Compound 17, (3-{[4-(decyloxy)-3-(2-thienyl)benzyl]amino}propyl)phosphonic acid] | 294
O=P(O)(O)CCCNCc1ccc(OCCCCCc2ccc(F)cc2)c(-c2ccco2)c1 [Compound 24, (3-{[4-{[5-(4-fluorophenyl)pentyl]oxy}-3-(2-furyl)benzyl]amino}propyl)phosphonic acid] | 0.98
CC(CCNCc1ccc(OCCCCCc2ccccc2)c(-c2ccco2)c1)P(=O)(O)O (stereo not shown) [Compound 36, [3-({3-(2-furyl)-4-[(5-phenylpentyl)oxy]benzyl}amino)-1-methylpropyl]phosphonic acid] | 18.5
COc1cccc(CCCCCOc2ccc(CNCCCP(=O)(O)O)cc2-c2ccco2)c1 [Compound 23, (3-{[3-(2-furyl)-4-{[5-(3-methoxyphenyl)pentyl]oxy}benzyl]amino}propyl)phosphonic acid] | 240
O=P(O)(O)CCCNCc1ccc(OCCCCCc2ccccc2)c(-c2ccco2)c1 [Compound 1, [3-({3-(2-furyl)-4-[(5-phenylpentyl)oxy]benzyl}amino)propyl]phosphonic acid] | 0.9

More lines, now with the values ahead:

EC50 [nM] | SMILES
12.5 | COc1cccc(CCCCCOc2ccc(CNCCCP(=O)(O)O)cc2-c2ccoc2)c1 [Compound 34, (3-{[3-(3-furyl)-4-{[5-(3-methoxyphenyl)pentyl]oxy}benzyl]amino}propyl)phosphonic acid]
32.8 | O=P(O)(O)CCCNCc1ccc(OCCCCCc2cccc(Cl)c2)c(-c2ccco2)c1 [Compound 39, (3-{[4-{[5-(3-chlorophenyl)pentyl]oxy}-3-(2-furyl)benzyl]amino}propyl)phosphonic acid]
19.7 | O=P(O)(O)CCCNCc1ccc(OCCCCCc2ccc(F)cc2)c(-c2cccs2)c1 [Compound 21, (3-{[4-{[5-(4-fluorophenyl)pentyl]oxy}-3-(2-thienyl)benzyl]amino}propyl)phosphonic acid]
8.4 | COc1ccc(CCCCCOc2ccc(CNCCCP(=O)(O)O)cc2-c2ccco2)cc1Cl [Compound 31, (3-{[4-{[5-(3-chloro-4-methoxyphenyl)pentyl]oxy}-3-(2-furyl)benzyl]amino}propyl)phosphonic acid]
23 | CP(=O)(O)CCCNCc1ccc(OCCCCCc2ccccc2)c(-c2cccs2)c1 [Compound 11, methyl[3-({4-[(5-phenylpentyl)oxy]-3-(2-thienyl)benzyl}amino)propyl]phosphinic acid]
8.5 | O=P(O)(O)CCCNCc1ccc(OCCCCCc2ccccc2)c(-n2cccn2)c1 [Compound 43, [3-({4-[(5-phenylpentyl)oxy]-3-(1H-pyrazol-1-yl)benzyl}amino)propyl]phosphonic acid]
517 | CCCCCCCCCOc1ccc(CNCCCP(=O)(O)O)cc1-c1cccs1 [Compound 16, (3-{[4-(nonyloxy)-3-(2-thienyl)benzyl]amino}propyl)phosphonic acid]
14.9 | CC(C)Cc1ccc(CCCOc2ccc(CNCCCP(=O)(O)O)cc2-c2cccs2)cc1 [Compound 7, [3-({4-[3-(4-isobutylphenyl)propoxy]-3-(2-thienyl)benzyl}amino)propyl]phosphonic acid]
3.4 | O=P(O)(O)CCCNCc1ccc(OCCCCCc2ccccc2)c(-n2cccc2)c1 [Compound 44, [3-({4-[(5-phenylpentyl)oxy]-3-(1H-pyrrol-1-yl)benzyl}amino)propyl]phosphonic acid]
1.9 | O=P(O)(O)CCCNCc1ccc(OCCCCCc2ccccc2)c(-c2ccc(F)o2)c1 [Compound 38, [3-({3-(5-fluoro-2-furyl)-4-[(5-phenylpentyl)oxy]benzyl}amino)propyl]phosphonic acid]
6.5 | COc1ccc(CCCCCOc2ccc(CNCCCP(=O)(O)O)cc2-c2cccs2)cc1Cl [Compound 32, (3-{[4-{[5-(3-chloro-4-methoxyphenyl)pentyl]oxy}-3-(2-thienyl)benzyl]amino}propyl)phosphonic acid]
2 | O=P(O)(O)CCCNCc1ccc(OCCCCCc2ccccc2)c(-c2nccs2)c1 [Compound 3, [3-({4-[(5-phenylpentyl)oxy]-3-(1,3-thiazol-2-yl)benzyl}amino)propyl]phosphonic acid]
48.6 | COc1ccc(CCCCCOc2ccc(CNCCCP(=O)(O)O)cc2-c2cccs2)cc1 [Compound 20, (3-{[4-{[5-(4-methoxyphenyl)pentyl]oxy}-3-(2-thienyl)benzyl]amino}propyl)phosphonic acid]
11.9 | O=P(O)(O)CCCNCc1ccc(OCCCCCc2ccccc2)c(-c2ncco2)c1 [Compound 2, [3-({3-(1,3-oxazol-2-yl)-4-[(5-phenylpentyl)oxy]benzyl}amino)propyl]phosphonic acid]
3.3 | O=P(O)(O)CCCNCc1ccc(OCCCCCc2ccccc2)c(-c2ccsc2)c1 [Compound 5, [3-({4-[(5-phenylpentyl)oxy]-3-(3-thienyl)benzyl}amino)propyl]phosphonic acid]
15.6 | O=P(O)(O)CCCNCc1ccc(NCCCCCc2ccccc2)c(-c2ncco2)c1 [Compound 47, [3-({3-(1,3-oxazol-2-yl)-4-[(5-phenylpentyl)amino]benzyl}amino)propyl]phosphonic acid]
5.7 | O=P(O)(O)CCCNCc1ccc(OCCCCCc2ccc(Cl)cc2)c(-c2ccco2)c1 [Compound 29, (3-{[4-{[5-(4-chlorophenyl)pentyl]oxy}-3-(2-furyl)benzyl]amino}propyl)phosphonic acid]
1.5 | O=P(O)(O)CCCNCc1ccc(NCCCCCc2ccccc2)c(-c2ccco2)c1 [Compound 46, [3-({3-(2-furyl)-4-[(5-phenylpentyl)amino]benzyl}amino)propyl]phosphonic acid]
52.6 | O=[PH](O)CCCNCc1ccc(OCCCCCc2ccccc2)c(-c2cccs2)c1 [Compound 37, [3-({4-[(5-phenylpentyl)oxy]-3-(2-thienyl)benzyl}amino)propyl]phosphinic acid]
